Consider three molecules from US4137224A (Schering Corporation, priority 1977, dated 1979).

For orientation: LD50 means the dose at which mortality reaches 50%. A lower LD50 goes with greater toxicity. A word on the MIC: it is the lowest concentration that inhibits growth of the organism.

In one data set the test system is Aeromonas sp. W-10. The experiment in a line: Resistance of Aeromonas sp. W-10 to antibacterial agents. It counts as cell-based. Particulars: in words. Here is the method:
The growth and physiological characteristics of Aeromonas sp. All observations were made after seven (7) days of incubation at 28° C. Color designations are assigned according to the classification in the Color Harmony Manual (1958), Container Corporation of America. The designates G, S, C and R used herein stand for growth, surface, color and reaction, respectively.

In data set [1] the test system is Candida albicans. The experiment in a line: In vivo activity in mice infected intravenously with Candida albicans. The arrangement: species or system male CFl mice; Candida albicans. Particulars: 48 hours after infection, read-out: PD50. Here is the method:
PD50 values were determined 48 hours after infection and are as follows: […]

Data set [2] concerns Saccharomyces cerevisiae ATCC 9763. The experiment in a line: Agar diffusion assay against Antibiotic 20562 standard. It counts as cell-based. The protocol: The broths are assayed against a standard solution of Antibiotic 20562 having an assigned potency of 1000 mcg/mg. The standard solution is diluted with 10% potassium phosphate buffer (pH 6.0) to make solutions having antibiotic concentrations of 3.2, 4.0, 5.0, 6.25 and 7.8 mcg/ml. The assay is performed substantially as set forth in the Federal Register, Title 21, Chapter 436.105.

Data set [3] concerns Trichophyton mentagrophytes. The experiment in a line: In vivo activity against Trichophyton mentagrophytes infection in guinea pigs. To be noted: 1% in polyethylene glycol 400, topical, twice daily for ten days. Here is the method: The skin of fifteen guinea pigs is abraided and infected with a standard culture of Trichophyton mentagrophytes. The infected animals are then separated into three groups containing five animals each. Suspensions containing 1% of the respective antibiotics in polyethylene glycol 400 are prepared. Two of the three groups are treated topically, twice daily for ten days commencing three days after infection. The third group (controls) remained untreated throughout the test. All of the animals are tested for infection by culture and observed for skin lesions for a total of 21 days.

A short description of data set [4]: Toxicity (LD50), oral or subcutaneous administration. To be noted: in vivo.
In data set [5] the test system is Candida albicans. The experiment in a line: In vitro MIC against strains of Candida albicans in Sabouraud dextrose broth. The format is cell-based. The protocol:
Antibiotic 20562 was tested in vitro in Sabourraud dextrose broth against strains of Candida albicans, the Minimum Inhibitory Concentration (MIC) being set forth in Table IV below: […]

Data set [6] has as its system Candida albicans (Wisconsin strain). The experiment in a line: Topical in vivo activity against Candida albicans intravaginal infection in hamsters. The arrangement: species or system female hamsters; Candida albicans. Particulars: three day treatment. Here is the method: Using a culture of Candida albicans (Wisconsin strain), in Sabourrauds dextrose broth, infect intravaginally, five groups of six female hamsters. Forty-eight and seventy-two hours after infection, make smears of the infected animals and culture the smears. […] (96 hours after infection), make additional smears, culture and commence treatment. One group of six animals (controls) receives no treatment and, therefore, remains infected throughout the test. The remaining four groups of animals are treated with Antibiotic 20562, as 1%, 5%, 10% and 15% suspensions, respectively, the vehicle for suspension being administered on a cotton swab. At the end of the three day treatment the 1%, 5% and 10% groups are 60% cured, the 15% group is completely (100%) cured.

[7] abbreviates: sc, single subcutaneous dose one hour after infection.
The mark [8] stands for this setting: single oral dose one hour after infection.
[9] abbreviates: Example 2 step B, after chromatography.
Setting [10] is: Example 3 steps C and D, after chromatography.
The mark [11] stands for this setting: isolated antibiotics, crystalline from methanol.

Values after ≈ are worked out from the molar mass of the structure shown. Like-named read-outs stand apart in the source and are kept apart here. *1 amine or outer side, *2 acyl side, *3 side chain or, on linkers, in order; H or OH if unused. Where a SMILES comes first, the peptide text is derived from it. Bridges are numbered along the chain shown (N, C = ends). [ ]: non-standard residue; d: D form. The star is where a group is joined. NMeT = CN[CH](C(=O)O)[CH](C)O; X1 = CCCCCCCCCCCC(O)CC(=O)*; X2 = CC=C(N[*:1])C(=O)[*:2]; X3 = OCC1OC(*)C(O)C(O)C1O Some results are limits rather than exact numbers.

Consider `CC(C)c1nc2nc(N)nc(N)c2nc1C(C)C` [0/129, 2,4-diamino-6,7-diisopropylpteridine], for which the “sensitivity of Aeromonas sp. W-10 to the vibriostatic compound” value in the data set on Aeromonas sp. W-10 is “insensitive”.
As to `CC=C(NC(=O)CC(O)CCCCCCCCCCC)C(=O)NC1C(=O)NC(C(C)O)C(=O)NC(Cc2ccc(O)cc2)C(=O)NC(=CC)C(=O)NC(CCC(N)=O)C(=O)NCC(=O)N(C)C(C(C)O)C(=O)NC(Cc2cnc[nH]2)C(=O)OC1C` (centres unmarked) [Antibiotic 20561] (X1-[X2]TTY[X2]QG[NMeT]H; ester 2-C; configuration not given here), the ED50 worked out at 4 mg/kg with Candida albicans [1] (setting [7]) and 25 mg/kg with Candida albicans [1] (setting [8]). Also, the entries for the “assay (potency)” value in data set [2] (setting [9]), in data set [2] (setting [10]) and in data set [2] (setting [11]) were 800 µg/mg, 800 µg/mg and “about 800 mcg/mg”, respectively. Moreover, the “Days to become negative, Culture” value in data set [3] was 4.8 days. Besides, the “Days to become negative, Lesion” value in data set [3] turned out to be 6.3 days. Besides, the median lethal dose (LD50) is 1000 mg/kg in data set [4] (po) and > 1000 mg/kg in data set [4] (sc).
On to `CC=C(NC(=O)CC(O)CCCCCCCCCCC)C(=O)NC1C(=O)NC(C(C)O)C(=O)NC(Cc2ccc(O)cc2)C(=O)NC(=CC)C(=O)NC(CCC(N)=O)C(=O)NCC(=O)N(C)C(C(C)OC2OC(CO)C(O)C(O)C2O)C(=O)NC(Cc2cnc[nH]2)C(=O)OC1C` (centres unmarked) [Antibiotic 20562] (X1-[X2]TTY[X2]QG[NMeT](X3)H; ester 2-C; configuration not given here), for which the ED50 in the data set on Candida albicans [1] (setting [7]) is 4 mg/kg; in the data set with Candida albicans [1] (setting [8]) it was 25 mg/kg. In addition, the minimum inhibitory concentration (MIC) in the data set with Candida albicans [5] (Candida albicans, strain Burke, read-out: MIC) turned out to be 0.075 µg/mL (≈ 0.0552 µM); in the data set with Candida albicans [5] (strain 29), 0.075 µg/mL (≈ 0.0552 µM); against Candida albicans [5] (strain Bevan), 0.075 µg/mL (≈ 0.0552 µM); against Candida albicans [5] (strain Collins), 0.075 µg/mL (≈ 0.0552 µM); with Candida albicans [5] (strain Fix), 0.075 µg/mL (≈ 0.0552 µM); against Candida albicans [5] (strain Lush), 0.075 µg/mL (≈ 0.0552 µM). For the same molecule, the MIC in the data set with Candida albicans [5] (strain Merkel), in the data set on Candida albicans [5] (strain Newcomb), in the data set with Candida albicans [5] (strain No. 1), against Candida albicans [5] (strain Raub), against Candida albicans [5] (strain Sperk) and in the data set with Candida albicans [5] (strain Wisconsin) was 0.075 µg/mL (≈ 0.0552 µM) each time. For the same molecule, the figures for the “assay (potency)” value in data set [2] (setting [9]), in data set [2] (setting [10]) and in data set [2] (setting [11]) were 800 µg/mg, 1000 µg/mg and “about 1000 mcg/mg”, respectively. Further, in data set [3], the “Days to become negative, Culture” value amounted to 5.8 days. In addition, the “Days to become negative, Lesion” value in data set [3] stood at 9.0 days. For the same molecule, the cured was 60% in data set [6] (1% suspension), 60% in data set [6] (5% suspension), 60% in data set [6] (10% suspension) and 100% in data set [6] (15% suspension). Besides, the median lethal dose (LD50) in data set [4] (po) worked out at 800 mg/kg; in data set [4] (sc) it was 600 mg/kg.
